Assay [1] in a line: TBARS generation in turkey meat under simulated gastric digestion. The settings on record: pH 3.0, 37 °C, 1 h. The protocol: This assay was carried out according to Kanner et al., with slight modifications. Briefly, the simulated gastric fluid (SGF) contained final concentration of NaCl (0.2% w/v), pepsin (0.32% w/v) and 700 µL of HCl (37%), adjusted to a final volume of 100 mL with ultrapure water. Thirty grams of turkey meat were ground with 90 mL of the SGF solution for 1 min in a blender and adjusted to pH 3.0 with 100 µL of 7N HCl. Fifteen mL of the SGF-meat mixture was aliquoted in 100 mL Erlenmeyer flasks. The powdered extract was weighed and added to the homogenate (meat–liquid mixture) to achieve final concentrations ranging from 0–500 µg/mL in the 15 mL SGF-meat mixture. The P. andina sample consisted in a pool of the extracts from different collection years. The flasks were placed in a shaking water bath at 37 °C during 1 h. At the end of the incubation, 800 µL of the samples, controls (without extracts) and blanks (without meat) were centrifuged at 20,000× g for 15 min at 4 °C. Lipid peroxidation was determined quantifying TBARS. For this purpose, the supernatant resulting from the centrifugation (750 µL) was mixed with 750 µL of TBA solution (0.37% TBA, 15% trichloroacetic acid in 0.25 N HCl), and boiled during 20 min. The absorbance was determined at 532 nm. All determinations were carried out in triplicate and results are presented as IC50 values (μg extracts/mL) ±SD. […]

Assay [2] can be described thus: Oxygen radical absorbance capacity (ORAC) assay. It is filed as physicochemical. The protocol: (§1) The antioxidant capacity of the extracts was evaluated by the discoloration of the DPPH radical, the ferric reducing power (FRAP), the scavenging of the ABTS radical (TEAC) and the oxygen radical absorbance capacity (ORAC). […] Trolox and quercetin were used as reference compounds. The DPPH, FRAP and TEAC assays were performed according to Jiménez-Aspee et al.. The ORAC assay was carried out following the methodology of Ou et al. with slight modifications. All determinations were carried out in triplicate and results are presented as mean values ± standard deviation (SD).

The target of assay [3] is T1, pancreatic lipase (Sus scrofa, UniProt P00591).
T1 construct: purchased Sigma-Aldrich L-3126; host or cells: porcine pancreas
T1 sequence (P00591 1-450): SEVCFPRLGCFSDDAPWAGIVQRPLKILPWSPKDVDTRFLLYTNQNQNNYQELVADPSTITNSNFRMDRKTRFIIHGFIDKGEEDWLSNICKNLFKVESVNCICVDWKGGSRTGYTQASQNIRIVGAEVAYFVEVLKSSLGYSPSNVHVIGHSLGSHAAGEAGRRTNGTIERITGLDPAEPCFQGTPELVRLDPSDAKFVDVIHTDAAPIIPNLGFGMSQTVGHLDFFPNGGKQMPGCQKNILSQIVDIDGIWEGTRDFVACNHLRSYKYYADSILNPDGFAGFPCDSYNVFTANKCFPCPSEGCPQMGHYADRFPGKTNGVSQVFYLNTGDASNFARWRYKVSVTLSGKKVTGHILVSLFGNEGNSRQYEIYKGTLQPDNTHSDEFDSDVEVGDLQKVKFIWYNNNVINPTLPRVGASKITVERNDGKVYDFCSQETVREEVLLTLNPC
Description: Pancreatic lipase inhibition assay. Format: biochemical, porcine. The settings on record: Sephadex fractions.

A short description of assay [4]: Ferric reducing power (FRAP) assay. Format: physicochemical. The protocol: as §1
A short description of assay [5]: Scavenging of the ABTS radical (TEAC) assay. Format: physicochemical. The protocol: as §1
The target in assay [6] is α-glucosidase (Saccharomyces cerevisiae, UniProt P53341). Description: α-Glucosidase inhibition assay. Format: biochemical. The settings on record: read-out: α-Glucosidase Inhibition (percentage of inhibition). The text has this:
The chemicals, enzymes and reagents acquired from Sigma-Aldrich (St. Louis, MO, USA) were the following: α-amylase from porcine pancreas (A3176; EC 3.2.1.1), α-glucosidase from Saccharomyces cerevisiae (G5003; EC 3.2.1.20), acetic acid, AlCl3, Amberlite XAD7 HP, catechin, DPPH (2,2-diphenyl-1-picrylhydrazyl radical), 3,5-dinitrosalicylic acid, porcine pancreas lipase type II (L-3126; EC 3.1.1.3), Na2CO3, 4-nitrophenyl-α-D-glucopyranoside, p-nitrophenyl palmitate, p-anisaldehyde, quercetin, sodium acetate, starch, 2,4,6-tri(2-pyridyl)1,3,5-triazine (TPTZ), trichloracetic acid, thiobarbituric acid, and triton X-100. The following materials were purchased from Merck (Darmstadt, Germany): 6-hydroxy-2,5,7,8-tetramethylchroman-2-carboxylic acid (Trolox), ethyl acetate, FeCl3 × 6H2O, potassium sodium tartrate and HPLC-grade methanol. Pepsin A (P3271) was from US Biological (Salem, MA, USA). […]
Potential inhibition of α-glucosidase by XAD7 extracts and fractions from the LH-20 column was tested under conditions that simulate, at least in part, those of the small intestine. […] Resulting enzyme activity was then measured by adding 20 µL of 5 mM p-nitrophenyl-α-D-glucopyranoside into the wells and incubating for additional 15 min at 37 °C. […] Final absorbance was measured at 415 nm in a Biotek ELx801 (Winooski, VT, USA) microplate reader. […]

Assay [7] deals with T2, α-amylase (Sus scrofa, UniProt P00690).
T2 construct: purchased Sigma-Aldrich A3176; host or cells: porcine pancreas
T2 sequence (P00690 16-511): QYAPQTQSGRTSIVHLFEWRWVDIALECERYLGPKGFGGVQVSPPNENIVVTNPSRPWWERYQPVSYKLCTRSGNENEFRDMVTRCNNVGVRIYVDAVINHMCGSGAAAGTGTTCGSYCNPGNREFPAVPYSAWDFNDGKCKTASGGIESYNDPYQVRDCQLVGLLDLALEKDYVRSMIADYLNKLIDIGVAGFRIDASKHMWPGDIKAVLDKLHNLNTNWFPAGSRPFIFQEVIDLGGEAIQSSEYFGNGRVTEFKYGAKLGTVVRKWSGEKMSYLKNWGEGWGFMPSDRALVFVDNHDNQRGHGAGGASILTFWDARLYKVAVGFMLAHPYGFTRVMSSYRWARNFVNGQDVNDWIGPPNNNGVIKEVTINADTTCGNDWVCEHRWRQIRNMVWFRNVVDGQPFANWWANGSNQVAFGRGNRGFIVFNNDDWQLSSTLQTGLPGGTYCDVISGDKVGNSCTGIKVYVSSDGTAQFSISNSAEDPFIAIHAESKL
Nature of the assay: α-Amylase inhibition assay. The settings on record: Sephadex fractions. Format: biochemical, porcine.

The nature of assay [8]: DPPH radical discoloration (scavenging) assay. Format: physicochemical. The protocol: as §1
For assay [9], the system named is AGS cells. Nature of the assay: Intracellular total antioxidant activity (TAA) in AGS cells. It is filed as cell-based, human. As to conditions: rutin 100 µg/mL; non-significant. The protocol:
The TAA was carried out according to Ferrari et al.. AGS cells were plated at 25,000 cells/mL in 3 cm diameter Petri dishes. One day after confluence, AGS cells were pre-incubated overnight (16 h) with 3 mL of the pool of P. andina XAD7 extracts, in different concentrations (0–400 µg extract/mL). For comparison purposes, rutin (100 µg/mL) was also included in this experiment. All samples were prepared in medium supplemented with 2% FBS. Cells treated only with culture medium were used as the control of the basal antioxidant level. The next morning, cells were collected with a cell scraper and centrifuged at 900× g during 5 min. […]
The ABTS radical was prepared by mixing 5 mL of a 7.46 mM ABTS solution with 88 μL of a 140 mM potassium persulfate solution. […] At the end of the incubation, the solution was diluted with MeOH until an absorbance value of 0.700 ± 0.050 at 734 nm was reached. […] After 6 min, absorbance was measured at 734 nm in a UV–Vis spectrophotometer. The absorbance was interpolated and converted to Trolox equivalents using a Trolox calibration curve. […] All the determinations were carried out in triplicate and results were expressed as µmol Trolox equivalents/mg protein ±SD.

For assay [10], the system named is AGS cells. Nature of the assay: Cytoprotection against H2O2-induced stress in AGS cells. As to conditions: Homo sapiens, rutin 100 µg/mL, non-significant, H2O2 control 47.4%, read-out: Cell viability after H2O2 challenge. It is filed as cell-based. The protocol:
Human AGS gastric adenocarcinoma cells (ATCC CRL-1739, American Type Culture Collection, Manassas, VA, USA) were grown as monolayers in a humidified incubator with 5% CO2 in air at 37 °C in HamF-12 medium supplemented with 2 mM L-glutamine and 1.5 g/L sodium bicarbonate. The medium contained 10% heat inactivated fetal bovine serum (FBS), 100 IU/mL penicillin and 100 µg/mL streptomycin. Cells were plated at 25,000 cells/mL in 96-well plates, with 100 µL per well. Cells were counted by means of the trypan blue exclusion assay in a Neubauer chamber. All the cell-based experiments were carried out using a pool of the extracts from different collection years.
Confluent cultures of AGS cells were incubated for 16 h with 100 µL of the different samples at concentrations ranging from 0 to 400 µg extract/mL). The flavonol rutin (100 µg/mL) was included in this assay for comparison purposes. The sample was dissolved in medium supplemented with 2% FBS and antibiotics. Culture medium was completely removed by vacuum aspiration at the end of the incubation, and cells were washed with 100 µL of PBS. […] Cell viability was determined by means of the MTT reduction assay, as described above. […] Each concentration of the assayed samples was evaluated in quintuplicate. Results are expressed as percentage of the 100% viability control.

SMILES strings stand for the structures. Read-outs that look alike come from different tables or passages of the source.

Sequence of α-glucosidase (P53341 whole entry): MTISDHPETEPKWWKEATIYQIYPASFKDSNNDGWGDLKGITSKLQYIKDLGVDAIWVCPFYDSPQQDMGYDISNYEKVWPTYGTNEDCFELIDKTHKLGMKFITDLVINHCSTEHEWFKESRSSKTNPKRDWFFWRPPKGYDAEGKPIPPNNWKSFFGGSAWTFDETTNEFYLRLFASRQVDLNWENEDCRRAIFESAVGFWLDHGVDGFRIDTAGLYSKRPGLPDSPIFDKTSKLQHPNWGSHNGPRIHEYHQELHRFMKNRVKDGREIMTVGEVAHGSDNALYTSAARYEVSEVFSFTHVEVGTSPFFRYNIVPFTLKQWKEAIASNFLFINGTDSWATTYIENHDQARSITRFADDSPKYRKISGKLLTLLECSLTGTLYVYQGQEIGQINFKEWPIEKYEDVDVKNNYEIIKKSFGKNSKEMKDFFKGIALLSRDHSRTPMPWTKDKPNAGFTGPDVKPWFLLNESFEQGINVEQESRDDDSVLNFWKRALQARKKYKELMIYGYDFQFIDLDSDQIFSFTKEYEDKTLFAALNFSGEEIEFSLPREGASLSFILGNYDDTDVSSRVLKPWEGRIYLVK

As for `N=C(N)NN` [aminoguanidine, Aminoguanidine], the “IC50 of TBARS generation in turkey meat” value in [1] was 317.8 ± 20.4 µg/mL.

A word on the inhibition: it is the share of the control response that was lost under treatment. In the case of `CC(C)(O)CC[C@@H](O)[C@](C)(O)[C@H]1CC[C@@]2(O)C3=CC(=O)[C@@H]4C[C@@H](O)[C@@H](O)C[C@]4(C)[C@H]3CC[C@]12C` [20-hydroxyecdysone], the ORAC value in [2] (isolated compound) is reported as 827.3 ± 30.9 µmol TE/g of sample. Also, in [3], the “Pancreatic Lipase Inhibition” value is “inactive”. Besides, the FRAP value in [4] (isolated compound) is given as 72.4 ± 7.9 µmol Trolox equivalents/g sample. In assay [5] (isolated compound), the TEAC assay activity result is “inactive”. Also, in assay [6] (at a concentration of 50 µg/mL, Sephadex fractions / isolated compounds), the inhibition at 50 µg/mL was 40.1 ± 1.3%. In addition, the “α-Amylase Inhibiton” value in assay [7] was “inactive”. In [8] (isolated compound), the DPPH assay activity entry is “inactive”.

Consider `O=c1c(O)c(-c2ccc(O)c(O)c2)oc2cc(O)cc(O)c12` [Quercetin, quercetin, reference compound], for which, in [2] (n = 3, mean ± SD), the ORAC is on record as 22561.6 ± 808.8 µmol TE/g XAD7 Extract. Also, the FRAP in assay [4] (n = 3, mean ± SD) amounted to 1077.2 ± 16.4 µmol TE/g XAD7 Extract. In assay [5] (n = 3, mean ± SD), the TEAC is on record as 8157.9 ± 22.1 µM TE/g XAD7 Extract. Further, in [8] (n = 3, mean ± SD), the “DPPH (SC50)” value came out at 7.8 ± 0.3 µg XAD7 Extract/mL.

What is called viability is a read-out of living cells in per cent, often relative to untreated cells. Regarding `C[C@@H]1O[C@@H](OC[C@H]2O[C@@H](Oc3c(-c4ccc(O)c(O)c4)oc4cc(O)cc(O)c4c3=O)[C@H](O)[C@@H](O)[C@@H]2O)[C@H](O)[C@H](O)[C@H]1O` [rutin, quercetin 3-O-rutinoside], the “Increase of total intracellular antioxidant activity (TAA) vs untreated controls” value in assay [9] is 48.6%. Besides, the “Pancreatic Lipase Inhibition” value in assay [3] was “inactive”. Also, the inhibition at 50 µg/mL in assay [6] worked out at 44.8 ± 1.6%. Also, the viability at 100 µg/mL in assay [10] stood at 46.4%. Moreover, in assay [7], the “α-Amylase Inhibiton” value is “inactive”.

These data come from paper PMC6891447, “Andean Prumnopitys Andina (Podocarpacae) Fruit Extracts: Characterization of Secondary Metabolites and Potential Cytoprotective Effect” (Molecules, 2019).
